Here are results for 2 compounds from patent publication US9440989B2, “Antifibrinolytic compounds” (PROYECTO DE BIOMEDICINA CIMA, S.L., priority 2012, dated 2016).

Some results are limits rather than exact numbers.

In assay [1] the test system is tail bleeding in wild-type C57B16 mice. As to the kind of experiment: Tail bleeding assay, traditional bleeding model. The format is in vivo. To be noted: intraperitoneal 4 mg/mouse, 160 mg/Kg, tail tip removed 30 min after injection, n = 10. The method, then:
Bleeding time was evaluated in 2 months old wild-type C57B16 (n=10) mice by removing the tail tip. Mice (20-25 g) were anaesthetized with 2.5% isoflurane and maintained at 37° C. on heating pads. The hemostatic efficacy was evaluated in 2 models, traditional bleeding model and hyperfibrinolytic bleeding model.
Traditional bleeding model consisted in intraperitoneal injection of different compounds (4 mg/mouse, 160 mg/Kg) dissolved in 2% carboxymethyl cellulose or vehicle. Thirty minutes after injection, 5 mm of tail tip were removed using a scalpel blade and the tail tip bathed in 1 mL of sterile saline at 37° C. The time to cessation of bleeding was measured up to 30 min. The time of bleeding was defined as the interval between initial transection and the visual cessation of bleeding.

Assay [2] has as its system human blood (whole blood clot lysis, tPA). As to the kind of experiment: Thromboelastometry (ROTEM, modified in-tem with tPA): whole blood clot formation and lysis, human blood. To be noted: Homo sapiens, read-out: EC50LT (effective concentration to delay lysis time by 50%).
Method: A modification of in-tem test as described below was used for the examination of antifibrinolytic effects of tested compounds and its interaction with platelets in citrated blood.
In a pre-warmed cuvette and holder 1 μL of Tissue plasminogen activator (tPA) (150,000 U/mL, Actylise), 20 μL of start-tem reagent (CaCl2), 20 μL of in-tem reagent (activators of coagulation system), 3 μL of DMSO (control) or tested compounds (CMs) in DMSO and 300 μL of citrated blood pre-warmed were pipetted. The cup holder containing the sample mixture was placed immediately on the appropriate channel. The measurement was recorded for 60 min to allow clot formation and lysis.

On to `COc1ccc(Oc2ccc(S(=O)(=O)C3(C(=O)NO)CCC4(CCCNC4)CC3)cc2)cc1` (stereo not shown) [Example 1-01], for which the “Bleeding time” value in assay [1] turned out to be 31.0 ± 3.6 s. Further, in assay [2], the EC50 is < 1 µM.

As for `COc1ccc(Oc2ccc(S(=O)(=O)C3(C(=O)NO)CCC4(CCCN(C)C4)CC3)cc2)cc1` (stereo not shown) [Example 1-02], the “Bleeding time” value in assay [1] is reported as 39.2 ± 4.7 s. Further, in assay [2], the EC50 was in the range of 10 to 25 µM.
